Data on nine molecules can be found in publication PMC6384781, “Design, Synthesis, Docking Studies and Monoamine Oxidase Inhibition of a Small Library of 1-acetyl- and 1-thiocarbamoyl-3,5-diphenyl-4,5-dihydro-(1H)-pyrazoles” (Molecules, 2019).

Data set [1] has as its target T1, hMAO-B (Homo sapiens, UniProt P27338).
T1 construct: purchased Sigma-Aldrich; host or cells: insect cells (microsomes)
T1 sequence (P27338 1-520): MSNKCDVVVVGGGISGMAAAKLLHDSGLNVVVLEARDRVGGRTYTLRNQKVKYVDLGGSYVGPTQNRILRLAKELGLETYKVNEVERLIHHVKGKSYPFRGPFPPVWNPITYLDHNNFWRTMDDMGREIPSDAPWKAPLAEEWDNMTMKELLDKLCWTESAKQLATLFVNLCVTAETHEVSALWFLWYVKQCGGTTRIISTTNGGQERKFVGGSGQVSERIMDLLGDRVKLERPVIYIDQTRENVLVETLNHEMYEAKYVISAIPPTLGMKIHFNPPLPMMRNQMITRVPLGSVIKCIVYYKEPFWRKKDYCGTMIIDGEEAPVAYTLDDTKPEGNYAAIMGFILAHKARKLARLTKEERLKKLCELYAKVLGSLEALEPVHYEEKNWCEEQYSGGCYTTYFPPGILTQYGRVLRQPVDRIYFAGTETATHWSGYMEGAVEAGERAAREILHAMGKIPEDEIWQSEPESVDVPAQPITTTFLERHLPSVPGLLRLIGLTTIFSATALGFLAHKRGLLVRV
Put plainly: hMAO-B inhibition, Amplex Red fluorometric assay with kynuramine substrate. Particulars: for SI (selectivity index for the hMAO-B isoform): ratio IC50(hMAO-A)/IC50(hMAO-B), SI > 1 = MAO-B selective; for IC50 / IC50 hMAO-B: recombinant hMAO-B, kynuramine 50 µM, mean ± SD of triplicate, max tested 100 µM. Type of data set: biochemical. The method, then:
(§1) The synthesized compounds P1–P18 were evaluated as hMAO inhibitors using the recombinant hMAOs as enzyme sources and kynuramine as substrate. A fluorometric method based on the Amplex® Red reagent (λex = 560 nm; λem = 590 nm) was used to measure hMAO activity. In this horseradish peroxidase-linked assay, Amplex® Red reacts with hydrogen peroxide that is produced by the MAO catalytic cycle to yield a fluorescent product, resorufin [28]. By thus recording the MAO-catalyzed formation of hydrogen peroxide in the presence of different concentrations of a test inhibitor, sigmoidal plots of enzyme activity versus the logarithm of inhibitor concentration were constructed from which IC50 values were estimated (GraphPad Prism 5). All IC50 values were measured in triplicate and are expressed as the mean ± standard deviation (SD). The inhibitory activities of compounds P1–P18 are summarized in Table 1 along with selectivity index (SI) values which are the ratio of IC50(hMAO-A)/IC50(hMAO-B). SI < 1 indicates selectivity for MAO-A, whereas SI > 1 indicates selectivity for the MAO-B isoform.
(§2) Microsomes from insect cells expressing recombinant hMAO-A or hMAO-B (5 mg protein/mL) served as enzyme sources, and were pre-aliquoted and stored at −70 °C. All enzymatic reactions were carried out to a final volume of 200 µL in black 96-well microtiter plates (Corning). Potassium phosphate buffer (100 mM, pH 7.4, made isotonic with KCl) served as reaction solvent. The reactions contained kynuramine (50 µM), various concentrations of the test inhibitor (0.003–100 μM), horseradish peroxidase (1 unit/mL) and Amplex® Red (200 µM). Stock solutions of the test inhibitors were prepared in DMSO and added to the reactions to yield a final concentration of 4% (v/v) DMSO. The reactions were initiated with the addition of hMAO-A (0.0075 mg protein/mL) or hMAO-B (0.015 mg protein/mL), and incubated at 37 °C for 20 min in a convection oven. At endpoint, the reactions were terminated with the addition of 10 μL pargyline (20 mM) and 10 μL (R)-deprenyl (5 mM) for hMAO-A and hMAO-B, respectively. The concentrations of resorufin in the reactions were determined by fluorescence spectrophotometry (λex = 560 nm, λem = 590 nm). Resorufin was quantitated with a linear calibration curve, which was constructed from standard solutions containing hydrogen peroxide (0.05–1.6 µM). Each standard was prepared to a final volume of 200 μL in potassium phosphate buffer and also contained horseradish peroxidase (1 unit/mL), Amplex® Red (200 µM), 4% DMSO as co-solvent, 10 μL pargyline (20 mM) for hMAO-A and 10 μL (R)-deprenyl (5 mM) for hMAO-B. The IC50 values were determined by constructing sigmoidal curves of MAO catalytic activity versus the logarithm of inhibitor concentration. For this purpose, the one site competition model incorporated into the Prism 5 software package (GraphPad, San Diego, CA, USA) was used. All experiments were carried out in triplicate and the IC50 values are expressed as mean ± standard deviation (SD).

Data set [2] concerns the target T2, hMAO-A (Homo sapiens, UniProt P21397).
T2 construct: purchased Sigma-Aldrich; host or cells: insect cells (microsomes)
T2 sequence (P21397 1-527): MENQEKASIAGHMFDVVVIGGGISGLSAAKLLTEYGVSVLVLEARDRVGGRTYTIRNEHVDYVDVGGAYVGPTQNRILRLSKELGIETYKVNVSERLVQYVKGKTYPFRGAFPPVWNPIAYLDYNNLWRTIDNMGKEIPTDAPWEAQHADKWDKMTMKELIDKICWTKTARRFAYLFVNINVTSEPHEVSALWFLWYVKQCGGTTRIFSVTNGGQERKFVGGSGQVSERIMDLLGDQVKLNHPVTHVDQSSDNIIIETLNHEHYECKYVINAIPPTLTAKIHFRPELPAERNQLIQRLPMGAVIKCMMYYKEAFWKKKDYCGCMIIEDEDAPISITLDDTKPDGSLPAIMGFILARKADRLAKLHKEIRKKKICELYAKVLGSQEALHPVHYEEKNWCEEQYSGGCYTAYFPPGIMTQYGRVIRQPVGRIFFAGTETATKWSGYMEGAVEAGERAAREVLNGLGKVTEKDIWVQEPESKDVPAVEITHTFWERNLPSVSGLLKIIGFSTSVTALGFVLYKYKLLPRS
Put plainly: hMAO-A inhibition, Amplex Red fluorometric assay with kynuramine substrate. The class given is biochemical. To be noted: for IC50 / IC50 hMAO-A: recombinant hMAO-A, kynuramine 50 µM, mean ± SD of triplicate, max tested 100 µM. As to the method: as §1, §2

Structures are written as SMILES.

For orientation: melting point means the temperature of the solid-liquid transition. For orientation: IC50 means the concentration at which inhibition is half-maximal. As to `C=CCOc1ccc(C2=NN(C(C)=O)C(c3ccccc3)C2)cc1` (stereo not shown) [Compound P7, 1-(3-(4-(allyloxy)phenyl)-5-phenyl-4,5-dihydro-1H-pyrazol-1-yl)ethan-1-one], the melting point lay in the range of 95 to 98 °C. In data set [1], the “SI (selectivity index for the hMAO-B isoform)” value came out at 2.72 and the concentration for half-maximal inhibition (IC50) is 14.5 ± 2.78 µM. The IC50 in data set [2] stood at 39.3 ± 5.94 µM.

Turning to `CC(=O)N1N=C(c2ccc(OCC=C(C)C)cc2)CC1c1ccccc1C` (stereo not shown) [Compound P9, 1-(3-(4-((3-methylbut-2-en-1-yl)oxy)phenyl)-5-(o-tolyl)-4,5-dihydro-1H-pyrazol-1-yl)ethan-1-one], the melting point was 110 to 112 °C. In addition, in data set [1], the “SI (selectivity index for the hMAO-B isoform)” value was found to be 0.33 and the IC50 amounted to 27.3 ± 0.57 µM. Also, in data set [2] (hMAO-A versus hMAO-B), the “fold higher inhibitory activity for hMAO-A than for hMAO-B” value stood at 3 fold. Also, the IC50 in data set [2] worked out at 9.13 ± 0.34 µM.

Consider `CC(=O)N1N=C(c2ccc(OCC=C(C)C)cc2)CC1c1cccc(C)c1` (stereo not shown) [Compound P10, 1-(3-(4-((3-methylbut-2-en-1-yl)oxy)phenyl)-5-(m-tolyl)-4,5-dihydro-1H-pyrazol-1-yl)ethan-1-one], for which the melting point lay within 120 to 122 °C. For the same molecule, in data set [1], the “SI (selectivity index for the hMAO-B isoform)” value was 26.96 and the IC50 turned out to be 3.22 ± 0.48 µM. Moreover, the IC50 in data set [2] stood at 86.8 ± 14.7 µM.

Molecule `CC(=O)N1N=C(c2ccc(OCC=C(C)C)cc2)CC1c1ccc(C)cc1C` (stereo not shown) [Compound P12, 1-(5-(2,4-dimethylphenyl)-3-(4-((3-methylbut-2-en-1-yl)oxy)phenyl)-4,5-dihydro-1H-pyrazol-1-yl)ethan-1-one] had a melting point of 117 to 119 °C. Moreover, in data set [1], the “SI (selectivity index for the hMAO-B isoform)” value was <0.81 and the IC50 is > 100 µM. In addition, the concentration for half-maximal inhibition (IC50) in data set [2] stood at 80.6 ± 10 µM.

`CC(=O)N1N=C(c2ccc(OCC=C(C)C)cc2)CC1c1ccccc1Cl` (stereo not shown) [Compound P13, 1-(5-(2-chlorophenyl)-3-(4-((3-methylbut-2-en-1-yl)oxy)phenyl)-4,5-dihydro-1H-pyrazol-1-yl)ethan-1-one] came in with a melting point of 131 to 134 °C. In data set [1], the “SI (selectivity index for the hMAO-B isoform)” value is recorded as 1.85 and the IC50 was 3.11 ± 0.66 µM. Further, the IC50 in data set [2] turned out to be 5.74 ± 1.66 µM.

As to `CC(=O)N1N=C(c2ccc(OCC=C(C)C)cc2)CC1c1cccc(Cl)c1` (stereo not shown) [Compound P14, 1-(5-(3-chlorophenyl)-3-(4-((3-methylbut-2-en-1-yl)oxy)phenyl)-4,5-dihydro-1H-pyrazol-1-yl)ethan-1-one], the melting point is 85 to 88 °C. Further, in data set [1], the “SI (selectivity index for the hMAO-B isoform)” value is recorded as 3.82 and the IC50 amounted to 1.08 ± 0.05 µM. The 50% inhibitory concentration (IC50) in data set [2] is 4.13 ± 0.26 µM.

`CC(=O)N1N=C(c2ccc(OCC=C(C)C)cc2)CC1c1ccc(Cl)cc1Cl` (stereo not shown) [Compound P16, 1-(5-(2,4-dichlorophenyl)-3-(4-((3-methylbut-2-en-1-yl)oxy)phenyl)-4,5-dihydro-1H-pyrazol-1-yl)ethan-1-one] displayed a melting point of 128 to 130 °C. In data set [1], the concentration for half-maximal inhibition (IC50) is > 100 µM and the “IC50 hMAO-B” value is listed as “did not inhibit”. Further, in data set [2], the concentration for half-maximal inhibition (IC50) is > 100 µM and the “IC50 hMAO-A” value is on record as “did not inhibit”.

Turning to `CC(=O)N1N=C(c2ccc(OCC=C(C)C)cc2)CC1c1ccc(-c2ccccc2)cc1` (stereo not shown) [Compound P17], the melting point fell in the range of 132 to 135 °C. Besides, in data set [1], the 50% inhibitory concentration (IC50) was > 100 µM and the “IC50 hMAO-B” value was “devoid of inhibition activity”. For the same molecule, in data set [2], the IC50 is > 100 µM and the “IC50 hMAO-A” value was “devoid of inhibition activity”.

The molecule `CC(=O)N1N=C(c2ccc(OCC=C(C)C)cc2)CC1c1cccc2ccccc12` (stereo not shown) [Compound P18, 1-(3-(4-((3-methylbut-2-en-1-yl)oxy)phenyl)-5-(naphthalen-1-yl)-4,5-dihydro-1H-pyrazol-1-yl)ethan-1-one] returned a melting point of 78 to 80 °C. In addition, in data set [1], the 50% inhibitory concentration (IC50) was > 100 µM and the “IC50 hMAO-B” value is recorded as “devoid of inhibition activity”. Further, in data set [2], the IC50 is > 100 µM and the “IC50 hMAO-A” value is recorded as “devoid of inhibition activity”.
